One assay deals with HCV IRES. The assay is described as follows: Ribosomal assembly assay on HCV IRES in RRL. It is filed as biochemical, Hepatitis C Virus. As to conditions: wild-type 32P-labelled HCV IRES RNA; 2 mM GMP-PNP or 20 mM cycloheximide. As to the method:
^32P-labelled wild type or mutant HCV IRES RNA (3 × 10^5 c.p.m.) was added to 25 μl of translation reaction containing 17.5 μl of rabbit reticulocyte lysate (RRL). The reactions were incubated at 30°C for 15 min and diluted to 150 μl with ice cold gradient buffer (20 mM Tris–HCl pH 7.5, 100 mM KCl, 3 mM MgCl2, 1 mM Dithiothreitol (DTT)) and overlaid in 5–30% sucrose gradient. The ribosomal complexes were separated by ultracentrifuge for 3 h at 30 000 rpm at 4°C in TH-641 rotor (Thermo Scientific). Fractions (330 μl) were manually collected from the top of the tube and radioactivity was measured in a liquid scintillation counter. To validate the peaks, in vitro translation was performed in presence of 2 mM 5′-guanylyl imidodiphosphate (GMP-PNP) or 20 mM of cycloheximide and peaks were resolved on sucrose gradient.
We confirmed the 48S and 80S peaks in the ribosome assembly profile by using GMPPNP and cycloheximide respectively. As expected GMPPNP and cycloheximide stalled translation at the 48S and 80S stages, respectively (Figure 3A).
Figure 3. Ribosome assembly on wild type and mutant HCV IRES. (A) Ribosome assembly on wild-type ^32P-labelled HCV IRES RNA in the presence of either cycloheximide or GMPPNP. […] Different fractions were collected and the radioactivity associated with each fraction was measured. […]

The test system of assay [1] is global protein synthesis in Huh7 cells. The assay is described as follows: 35S-Methionine metabolic labelling. It is filed as cell-based. As to conditions: cycloheximide 100 μg/ml, positive control. As to the method: Forty-eight hours after transfection, medium was replaced with serum free DMEM lacking methionine and cysteine (Sigma) and incubated for 1 h. Then 100 μci of ^35S in vivo pro-twin label mix (BRIT) was added to each well and cells were labelled for 30 min. Cells treated with 100 μg/ml concentration of cycloheximide were taken as positive control for global translation shut down. After labelling the cells, media was removed and the cells were washed three times with ice-cold phosphate buffered saline (PBS). Cells were harvested and lysed in the 100 μl of RIPA buffer lacking SDS (50 mM Tris–HCl pH 7.4, 150 mM NaCl, 1 mM EDTA, 1% NP-40, 0.25% sodiumdeoxycholate) containing protease inhibitors (complete EDTA-free protease inhibitor, Roche). The protein concentration of the lysate was then estimated by Bradford assay. Twenty-five micrograms of protein from each sample was mixed with 0.1 mg BSA and ice-cold TCA was added to a final concentration of 20%. The samples were incubated for 30 min on ice and loaded on prewet (with 20% TCA) glass microfibre filters (Whatmann). The filters were washed with 1 ml of 20% TCA twice and once with 1 ml of 100% ethanol. The filters were then incubated overnight with 4 ml of scintillation liquid and counts were taken.
Figure 6. Role of RPS5 in HCV translation and replication. […] Huh7 cells were transfected with siNSP RNA or siRPS5 RNA. […]

In the case of `C[C@@H]1C[C@@H]([C@H](O)CC2CC(=O)NC(=O)C2)C(=O)[C@@H](C)C1` [cycloheximide], the “stage at which translation is stalled” value with HCV IRES was found to be 80S. Moreover, the “reduction of protein levels (35S-methionine incorporation)” value in assay [1] is approximately 75%.

On to `Nc1nc2c(ncn2[C@@H]2O[C@H](COP(=O)(O)OP(=O)(O)NP(=O)(O)O)[C@@H](O)[C@H]2O)c(=O)[nH]1` [GMPPNP, 5′-guanylyl imidodiphosphate], for which the “stage at which translation is stalled” value in the assay on HCV IRES is recorded as 48S.

Source of the values: paper PMC4357715, “The beta hairpin structure within ribosomal protein S5 mediates interplay between domains II and IV and regulates HCV IRES function” (Nucleic Acids Research, 2015).
